# Laboratory results published in US20260306633A1, “A COMBINATION THERAPY FOR CANCER TREATMENT” (Purdue Research Foundation, priority 2023, published 2026).
# Values joined by “and” are separate entries in the source; they are usually repeats but may differ in a detail not shown here. Equal entries are not always repeated.
# Experiments:
# TNBC BT-549 cells = experiment: Cell survival / cell inhibition (MTT cell cytotoxicity assay) after 24 h treatment with photosensitizer and/or chemotherapeutic agent, dark or light-irradiated; format: cell-based, human
# Description: Human mammary epithelial carcinoma cell lines purchased from the American Type Culture Collection BT-549 (ATCC HTB-122) were cultured according to ATCC protocol. BT-549 cells were grown in RPMI 1640 containing 0.023 IU/mL insulin and supplemented with 10% fetal bovine serum (FBS). Cells were grown to 80-90% confluence in 75-cm^2 culture flasks (Corning) for 4-5 days in a humidified incubator (Fisher Scientific Isotemp) with 5% CO2 at 37° C. During the incubation period, growth media was changed once with fresh pre-warmed media (pH 7.2). To harvest the cells, old growth media was aspirated out, and 3 mL 0.25% trypsin solution (Thermo Sci Hyclone) were added. The cells were incubated for 5 minutes, and the cell pellet after centrifugation was resuspended in 3 mL media, broken up gently, then 1 mL of suspended cells was transferred into a new T75 cell culture flask containing pre-warmed media (20 mL) for further culturing.
# (§1) Cells were grown to confluence in a 96-well plate (9×10^3 cells/well) and co-treated for 24 hours with synthesized photosensitizers (PSs) and chemotherapeutic agents of varying concentrations ranging from 5 nM to 50 μM) in growth media from a stock solution of 10 mM in DMSO (dimethyl sulfoxide, Fisher). After 24-hour treatment, old growth media containing the PSs or compounds were aspirated out and replaced with fresh media. Plates were then positioned below a non-coherent LumaCare LC-122 650 nm light source for 1 minute at an energy fluence rate of 0.96 J/cm^2 and a power of 16 mW/cm^2 (measured using a Newport optical power meter Model 840). Unirradiated cells served as control samples. The following day, cells were washed with pre-warmed PBS, and 11MTT (3-[4,5-dimethyl-thiazol-2-yl]-2.5-diphenyltetrazolium bromide, Sigma, 0.3 mg/mL) in PBS was added to each well. Samples were allowed to incubate for additional 2 hours, after which dark blue crystals formed. DMSO was added to each well and plates were shaken at room temperature for 1 hour to dissolve the purplish-blue formazan crystals. Absorbance values at 570 nm were measured on a microplate reader (BioRad 550). Cell survival was calculated based on the absorbance of the untreated cells alone (as control) and were directly proportional to the number of viable cells in culture. Results were reported as the mean±SD of triplicate measurements.
# The unmetallated PS and the indium complexes were used.
# Light dose corresponds to an energy fluence rate of 0.96 J/cm^2 used.
# Power of 16 mW/cm^2 used.
# Cell inhibition in TNBC cells is based on the cell survival (MTT) assay of the binary therapy, blending the effect of PDT and chemotherapeutic agents. […] MePheo serves as a control compound. TNBC cells were then exposed to light after binary treatment for 24 hours.
# TNBC cells [1] = experiment: Combination index (CI) of binary therapy, Chou-Talalay method, CompuSyn software; format: cell-based, human
# Description: (§2) The calculated CI values are based on 50 nM concentration for the PSs, 50 nM paclitaxel, 500 nM doxorubicin, 25 μM cisplatin, 25 μM fluorouracil, and 500 nM methotrexate.
# as §1
# The combination index (CI) for the binary treatment of TNBC cells with a PS and a chemotherapeutic drug was calculated based on the Chou-Talalay method using CompuSyn software. […] The unified dynamics algorithm uses a minimum of dose-data points to fit the general MAL theory.
# as §2
# human TNBC BT-549 cells = experiment: Fluorescence microscopy (Hoechst 33258) of cell morphology / cell death pathway; format: cell-based
# Description: Grayscale images of cells stained with Hoechst 33258. Morphology of (A) untreated unirradiated cells, sham control; (B) illuminated cells; (C-E) cells treated with: PSs (InCLA, CBTN, and CPA) and paclitaxel in the dark; (F-H) PSs, followed by 1 minute light exposure; (I) paclitaxel unirradiated; (J-L) PSs and paclitaxel in the dark; (M-O) PSs co-treated with paclitaxel, then light-exposed; (P-Q) PSs co-treated with doxorubicin, then irradiated; (R) PSs and cisplatin, dark; (S-T) PSs and cisplatin, irradiated; (U) fluorouracil, dark; (V) InCLA with fluorouracil in the dark; (W) light-exposed and, (X-Y) PSs with methotrexate with light. Inserts indicate enlarged view. […] Light dose in 1 minute=0.96 J cm^−2; in 30 seconds=0.48 J cm^−2. Concentrations: PSs=50 nM; paclitaxel=50 nM; doxorubicin=500 nM; cisplatin=25 μM; fluororuracil=25 μM; and, methotrexate=500 nM.
# Cells (1 mL aliquots) obtained from a diluted cell suspension were seeded into each well (1.7 cm^2, 8×10^3 cells/well) of a 4-well culture slide (BD Biosciences) and grown to confluence in 5% CO2 at 37° C. for 3-4 days for attachment to the substratum. After aspirating the old growth media, 1 mL of the photosensitizer and chemotherapeutic agents (with appropriate concentrations) in fresh pre-warmed media at 37° C. was added to each well. After compound treatment for 24 hours, cells were washed twice with 1 mL fresh growth media, and then irradiated with light using LumaCare LC-122 as described above. Cells were stained in the dark with Hoechst 33258 (Molecular Probes) in pre-warmed media for 10 minutes at 37° C., washed twice with filtered PBS, then fixed with filtered paraformaldehyde for 15 minutes in the incubator. After thorough liquid aspiration, the wells were removed and allowed to air dry in the dark for 1 hour. Slides were protected with coverslips, whose edges were sealed using clear fast-drying nail polish and allowed to dry at room temperature in the dark for 30 minutes. Images were recorded using fluorescence microscopy (DAPI for Hoechst 350-390 nm excitation and 460-490 nm emission filters) using an upright fluorescence microscope with Retiga imaging 2000R (Nikon Optiphot-2, 20× and 40×) and an image processing Nikon NIS-Elements V4.0 Qimaging software.
# To determine the preferred cell death pathway for the binary chemophotodynamic therapy, tracking the hallmarks of apoptosis or necrosis was accomplished using a nuclear stain to monitor chromatin condensation and cellular contraction. TNBC cells are spindle-shaped and nearly round with intact cytoplasm, diffused chromatin, distinct cellular membrane, and large oval nuclei staining dark blue with the nuclear stain (FIG. 18A-B).
# TNBC cells [2] = experiment: Combination index (CI) of binary therapy, Chou-Talalay method, CompuSyn software; format: cell-based, human; conditions: PS 50 nM + methotrexate 500 μM (footnote 500 nM)
smiles,measurement,setting,value
"C=Cc1c(C)c2cc3nc(c(CC(=O)OC)c4[nH]c(cc5nc(cc1[nH]2)C(C)=C5CC)c(C)c4C(=O)NCCCCCCNC(=O)CCNC(=O)[C@H](O)C(C)(C)CO)[C@@H](CCC(=O)OC)[C@@H]3C [CPA, chlorin pantothenic acid conjugate]","cell viability, co-treatment with methotrexate upon light","TNBC BT-549 cells; PS 50 nM + methotrexate 500 nM, light, 1440 min",66%
same,"cell survival, PS alone","TNBC BT-549 cells; PS 50 nM, light, 1440 min",99%
same,"cell inhibition (%), combination with cisplatin","TNBC BT-549 cells; PS 100 nM + cisplatin 25 μM, 24 h, light 0.96 J cm−2",87%
same,effect of added cisplatin compared to cisplatin-treated cell viability,"TNBC BT-549 cells; PS 100 nM + cisplatin 25 μM, light",reduced cell survival
same,"cell survival, co-treatment with cisplatin upon light","TNBC BT-549 cells; PS 100 nM + cisplatin 25 μM, light, 1440 min",13%
same,"cell survival, co-treatment with doxorubicin in the dark","TNBC BT-549 cells; PS 100 nM + doxorubicin 500 nM, 24 h, dark",75%
same,"cell inhibition (%), combination with doxorubicin","TNBC BT-549 cells; PS 100 nM + doxorubicin 500 nM, 24 h, light 0.96 J cm−2",73%
same,"cell survival, co-treatment with doxorubicin upon light","TNBC BT-549 cells; PS 100 nM + doxorubicin 500 nM, light, 1440 min, 0.1 µM",37% and 27%
same,best combination partner,"TNBC BT-549 cells; PS 100 nM + drug, light","cisplatin is the best, next doxorubicin, then paclitaxel"
same,"cell inhibition (%), combination with fluorouracil","TNBC BT-549 cells; PS 100 nM + fluorouracil 25 μM, 24 h, light 0.96 J cm−2",43%
same,effect of added fluorouracil compared to fluorouracil-treated cell viability,"TNBC BT-549 cells; PS 100 nM + fluorouracil 25 μM, light",reduced cell survival
same,"cell survival, co-treatment with fluorouracil upon light","TNBC BT-549 cells; PS 100 nM + fluorouracil 25 μM, light, 1440 min",57%
same,"cell inhibition (%), combination with methotrexate","TNBC BT-549 cells; PS 100 nM + methotrexate 500 nM, 24 h, light 0.96 J cm−2",33%
same,"cell inhibition (%), combination with paclitaxel","TNBC BT-549 cells; PS 100 nM + paclitaxel 50 nM, 24 h, light 0.96 J cm−2",63%
same,"cell survival, co-treatment with paclitaxel upon light","TNBC BT-549 cells; PS 100 nM + paclitaxel 50 nM, light, 1440 min",37%
same,"chemophotodynamic potency against TNBC cells, summary","TNBC BT-549 cells; PS 100 nM alone or in combination, light",better activity against TNBC cells than the starting compound MePheo
same,"cell survival, PS alone","TNBC BT-549 cells; PS 100 nM, light 0.96 J/cm^2, 1440 min, 0.1 µM",75.3% and 75%
same,"cytotoxicity in the absence of light, PS alone","TNBC BT-549 cells; PS 500 nM, dark",No cytotoxicity
same,combination therapy vs monotherapy (cisplatin),"TNBC BT-549 cells; PS + cisplatin, light",better photodynamic effect when co-treated with cisplatin than PS-treatment alone
same,combination therapy vs monotherapy (doxorubicin),"TNBC BT-549 cells; PS + doxorubicin, light",better photodynamic effect when co-treated with doxorubicin than PS-treatment alone
same,combination therapy vs monotherapy (fluorouracil),"TNBC BT-549 cells; PS + fluorouracil, light",better photodynamic effect when co-treated with fluorouracil than PS-treatment alone
same,combination therapy vs monotherapy (methotrexate),"TNBC BT-549 cells; PS + methotrexate, light",best compared to monotherapy alone and with the other PSs used
same,cell viability reduction (difference) vs PS alone,"TNBC BT-549 cells; PS at lower concentration (CPA: 50 nM) + methotrexate 500 nM, light",33%
same,combination index (CI) with cisplatin,TNBC cells [1]; PS 50 nM + cisplatin 25 μM,1.30
same,synergism vs additive vs antagonism effect with cisplatin,TNBC cells [1]; PS 50 nM + cisplatin 25 μM,"(MA) (MA (1.20-1.45), moderate antagonism)"
same,combination index (CI) with doxorubicin,TNBC cells [1]; PS 50 nM + doxorubicin 500 nM,1.52
same,synergism vs additive vs antagonism effect with doxorubicin,TNBC cells [1]; PS 50 nM + doxorubicin 500 nM,"(A) (A (1.45-3.3), antagonism)"
same,"ranking of combination partners based on CI, decreasing order",TNBC cells [1]; PS 50 nM + drug,paclitaxel>fluorouracil>methotrexate
same,combination index (CI) with fluorouracil,TNBC cells [1]; PS 50 nM + fluorouracil 25 μM,0.45
same,synergism vs additive vs antagonism effect with fluorouracil,TNBC cells [1]; PS 50 nM + fluorouracil 25 μM,"(S) (S (0.3-0.7), synergism)"
same,combination index (CI) with paclitaxel,TNBC cells [1]; PS 50 nM + paclitaxel 50 nM,0.41
same,synergism vs additive vs antagonism effect with paclitaxel,TNBC cells [1]; PS 50 nM + paclitaxel 50 nM,"(S) (S (0.3-0.7), synergism)"
same,"cell morphology, PS co-treated with paclitaxel","human TNBC BT-549 cells; PS 50 nM + paclitaxel 50 nM, light (FIG. 18M-O)",shrunk cells and chromatin fragmentation are evident
same,"cell morphology, PS-treated then light","human TNBC BT-549 cells; PS 50 nM, 24 h, light (FIG. 18F-H)",reduced cellular volume and nuclear density
same,preferred mode of cell death,human TNBC BT-549 cells; PS co-treated with paclitaxel or cisplatin,apoptosis
same,combination index (CI) with methotrexate,TNBC cells [2],0.50
same,synergism vs additive vs antagonism effect with methotrexate,TNBC cells [2],"(S) (S (0.3-0.7), synergism)"
